Source: patent publication US10525004B2, “Epithelial delivery” (BIOCOMPATIBLES UK LIMITED, priority 2008, dated 2020)

Experiments:
[1] = cited from earlier work
[2] = tested on: intracellular P. gingivalis; assay: Intracellular killing of P. gingivalis in H357 keratinocytes (invasion assay, colony count); assay type: cell-based; settings: H357 cells infected at MOI 100; metronidazole 0.01-10 μg/ml with 2 mg/ml vesicles; FIG. 7
Protocol: The polymer was prepared as in Example 9a. The film was dissolved by adding 2 ml of sterilized PBS (pH2) until the solution was clear. The concentration of polymer was 10 mg/ml. This was then sterilized using a 0.2 μm filter. The pH of the solution was adjusted to 7.4 with sterilized 1M NaOH and the vesicles purified by gel filtration chromatography using sterilized sepharose agar 4B (Sigma, Poole, Dorset, UK). […] After that, 200 μl of the medium was collected for H357 viability test using the LDH assay. Moreover, keratinocytes in a different plate treated in an identical manner was tested for H357 viability using propidium iodide and Hoechst. […] Serial dilutions of the lysate were used to determine colony count. […] This was then sonicated for 30 minutes to improve encapsulation. The mixture was not separated by size-exchange chromatography, so the free metronidazole was in equilibrium with the encapsulated metronidazole. P. gingivalis (ATCC 33277) at MOI 100 was used to infect H357 cells for 90 min. […] Saponin was then used to release intracellular bacteria from H357 cells and the number of intracellular P. gingivalis measured by counting the colonies from serial dilutions.

[3] = tested on: H357; settings: LDH assay; all concentrations; FIG. 8

Row | Compound | log P [1] | recovered intracellular P. gingivalis (killing of intracellular bacteria) [2] | viability of H357 [3]
1 | Cc1ncc([N+](=O)[O-])n1CCO [metronidazole, Metronidazole] | negative | – | –
2 | gentamycin | – | not able to kill the intracellular P. gingivalis | not significantly different
